# Experimental data taken from ChEMBL document CHEMBL1201862, “PubChem BioAssay data set” (2004).
#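 Five concentrations, 48 hours, 96-well plates. GI50 = concentration required for 50% inhibition of growth.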 Activity calls are given as the source filed them. Rule as the data show it: active = GI50 up to about 1.1 µM and inactive = higher.
# How the values were obtained:
# Experiment in all cases: growth of human tumour cells (NCI), 48 h
# 786-0 = test system: 786-0
# A498 = test system: A498
# A549 = test system: A549
# ACHN = test system: ACHN
# CAKI-1 = test system: CAKI-1
# CCRF-CEM = test system: CCRF-CEM
# COLO 205 = test system: COLO 205
# DU-145 = test system: DU-145
# EKVX = test system: EKVX
# HCC 2998 = test system: HCC 2998
# HCT-116 = test system: HCT-116
# HCT-15 = test system: HCT-15
# HL-60 = test system: HL-60
# HOP-62 = test system: HOP-62
# HOP-92 = test system: HOP-92
# HT-29 = test system: HT-29
# Hs-578T = test system: Hs-578T
# IGROV-1 = test system: IGROV-1
# K562 = test system: K562
# KM12 = test system: KM12
# LOX IMVI = test system: LOX IMVI
# M14 = test system: M14
# MDA-MB-231 = test system: MDA-MB-231
# MDA-MB-435 = test system: MDA-MB-435
# MDA-N = test system: MDA-N
# Malme-3M = test system: Malme-3M
# NCI-H226 = test system: NCI-H226
# NCI-H23 = test system: NCI-H23
# NCI-H460 = test system: NCI-H460
# NCI-H522 = test system: NCI-H522
# NCI/ADR-RES = test system: NCI/ADR-RES
# OVCAR-3 = test system: OVCAR-3
# OVCAR-4 = test system: OVCAR-4
# OVCAR-5 = test system: OVCAR-5
# OVCAR-8 = test system: OVCAR-8
# PC-3 = test system: PC-3
# RPMI-8226 = test system: RPMI-8226
# RXF 393 = test system: RXF 393
# SF-268 = test system: SF-268
# SF-295 = test system: SF-295
# SF-539 = test system: SF-539
# SK-MEL-28 = test system: SK-MEL-28
# SK-MEL-5 = test system: SK-MEL-5
# SK-OV-3 = test system: SK-OV-3
# SN12C = test system: SN12C
# SNB-19 = test system: SNB-19
# SNB-75 = test system: SNB-75
# SR = test system: SR
# SW-620 = test system: SW-620
# T47D = test system: T47D
# TK-10 = test system: TK-10
# U-251 = test system: U-251
# UACC-257 = test system: UACC-257
# UACC-62 = test system: UACC-62
# MCF7 = test system: MCF7
# MOLT-4 = test system: MOLT-4
# UO-31 = test system: UO-31
# SK-MEL-2 = test system: SK-MEL-2
compound,measurement,setting,value
CCC1(C)N=c2c(ncn2N=C(C)C)=C(C(N)=O)N1 (centres undefined),GI50,786-0,> 100 µM (inactive)
same,GI50,A498,> 100 µM (inactive)
same,GI50,A549,> 100 µM (inactive)
same,GI50,ACHN,> 100 µM (inactive)
same,GI50,CAKI-1,> 100 µM (inactive)
same,GI50,CCRF-CEM,> 100 µM (inactive)
same,GI50,COLO 205,> 100 µM (inactive)
same,GI50,DU-145,> 100 µM (inactive)
same,GI50,EKVX,> 100 µM (inactive)
same,GI50,HCC 2998,> 100 µM (inactive)
same,GI50,HCT-116,> 100 µM (inactive)
same,GI50,HCT-15,> 100 µM
same,GI50,HL-60,> 100 µM (inactive)
same,GI50,HOP-62,> 100 µM (inactive)
same,GI50,HOP-92,0.426 µM (active)
same,GI50,HT-29,> 100 µM (inactive)
same,GI50,Hs-578T,> 100 µM (inactive)
same,GI50,IGROV-1,> 100 µM (inactive)
same,GI50,K562,> 100 µM (inactive)
same,GI50,KM12,22.6 µM (inactive)
same,GI50,LOX IMVI,> 100 µM (inactive)
same,GI50,M14,> 100 µM (inactive)
same,GI50,MDA-MB-231,> 100 µM (inactive)
same,GI50,MDA-MB-435,> 100 µM (inactive)
same,GI50,MDA-N,> 100 µM (inactive)
same,GI50,Malme-3M,> 100 µM (inactive)
same,GI50,NCI-H226,> 100 µM (inactive)
same,GI50,NCI-H23,> 100 µM (inactive)
same,GI50,NCI-H460,> 100 µM (inactive)
same,GI50,NCI-H522,> 100 µM (inactive)
same,GI50,NCI/ADR-RES,> 100 µM (inactive)
same,GI50,OVCAR-3,> 100 µM (inactive)
same,GI50,OVCAR-4,> 100 µM (inactive)
same,GI50,OVCAR-5,> 100 µM (inactive)
same,GI50,OVCAR-8,> 100 µM (inactive)
same,GI50,PC-3,> 100 µM (inactive)
same,GI50,RPMI-8226,> 100 µM (inactive)
same,GI50,RXF 393,> 100 µM (inactive)
same,GI50,SF-268,> 100 µM (inactive)
same,GI50,SF-295,> 100 µM (inactive)
same,GI50,SF-539,> 100 µM (inactive)
same,GI50,SK-MEL-28,> 100 µM (inactive)
same,GI50,SK-MEL-5,> 100 µM (inactive)
same,GI50,SK-OV-3,> 100 µM (inactive)
same,GI50,SN12C,> 100 µM (inactive)
same,GI50,SNB-19,> 100 µM (inactive)
same,GI50,SNB-75,> 100 µM (inactive)
same,GI50,SR,> 100 µM (inactive)
same,GI50,SW-620,> 100 µM (inactive)
same,GI50,T47D,> 100 µM (inactive)
same,GI50,TK-10,> 100 µM (inactive)
same,GI50,U-251,> 100 µM (inactive)
same,GI50,UACC-257,> 100 µM (inactive)
same,GI50,UACC-62,> 100 µM (inactive)
COc1ccc2[nH]c3c([N+](=O)[O-])ccc(NCCCN(C)C)c3/c(=N/CCCN(C)C)c2c1,GI50,786-0,0.94 µM (active)
same,GI50,A549,1.74 µM (inactive)
same,GI50,CAKI-1,2.07 µM (inactive)
same,GI50,CCRF-CEM,0.448 µM (active)
same,GI50,DU-145,3.24 µM (inactive)
same,GI50,EKVX,2.55 µM (inactive)
same,GI50,HCC 2998,1.24 µM (inactive)
same,GI50,HCT-15,1.53 µM
same,GI50,HL-60,1.77 µM (inactive)
same,GI50,HOP-62,1.4 µM (inactive)
same,GI50,HOP-92,3.33 µM (inactive)
same,GI50,HT-29,1.12 µM (inactive)
same,GI50,IGROV-1,1.86 µM (inactive)
same,GI50,K562,1.42 µM (inactive)
same,GI50,KM12,1.08 µM (active)
same,GI50,LOX IMVI,1.41 µM (inactive)
same,GI50,M14,> 10 µM (inactive)
same,GI50,MCF7,0.743 µM (active)
same,GI50,MDA-MB-231,1.5 µM (inactive)
same,GI50,MDA-MB-435,7.62 µM (inactive)
same,GI50,MOLT-4,0.31 µM (active)
same,GI50,Malme-3M,9.75 µM (inactive)
same,GI50,NCI-H23,1.56 µM (inactive)
same,GI50,OVCAR-4,0.914 µM (active)
same,GI50,OVCAR-8,0.893 µM (active)
same,GI50,PC-3,1.06 µM (active)
same,GI50,RPMI-8226,0.635 µM (active)
same,GI50,RXF 393,0.631 µM (active)
same,GI50,SF-268,1.64 µM (inactive)
same,GI50,SF-295,1.63 µM (inactive)
same,GI50,SK-MEL-28,1.89 µM (inactive)
same,GI50,SK-MEL-5,1.9 µM (inactive)
same,GI50,SK-OV-3,2.01 µM (inactive)
same,GI50,SN12C,1.35 µM (inactive)
same,GI50,SNB-75,1.84 µM (inactive)
same,GI50,SR,0.28 µM (active)
same,GI50,SW-620,1.63 µM (inactive)
same,GI50,T47D,> 10 µM (inactive)
same,GI50,TK-10,2.36 µM (inactive)
same,GI50,UACC-257,> 10 µM (inactive)
same,GI50,UACC-62,> 10 µM (inactive)
COc1cc(OC)c(CSCC(NC(=O)OCC2c3ccccc3-c3ccccc32)C(=O)O)c(OC)c1 (centres undefined),GI50,A498,> 10 µM (inactive)
same,GI50,A549,> 10 µM (inactive)
same,GI50,ACHN,> 10 µM (inactive)
same,GI50,CAKI-1,> 10 µM (inactive)
same,GI50,COLO 205,> 10 µM (inactive)
same,GI50,DU-145,> 10 µM (inactive)
same,GI50,EKVX,> 10 µM (inactive)
same,GI50,HCT-116,> 10 µM (inactive)
same,GI50,HCT-15,> 10 µM
same,GI50,HOP-92,> 10 µM (inactive)
same,GI50,HT-29,> 10 µM (inactive)
same,GI50,IGROV-1,> 10 µM (inactive)
same,GI50,KM12,> 10 µM (inactive)
same,GI50,M14,> 10 µM (inactive)
same,GI50,MDA-MB-231,> 10 µM (inactive)
same,GI50,MDA-MB-435,> 10 µM (inactive)
same,GI50,MDA-N,> 10 µM (inactive)
same,GI50,NCI-H226,5.22 µM (inactive)
same,GI50,NCI-H23,> 10 µM (inactive)
same,GI50,NCI/ADR-RES,> 10 µM (inactive)
same,GI50,OVCAR-3,> 10 µM (inactive)
same,GI50,OVCAR-4,> 10 µM (inactive)
same,GI50,OVCAR-5,> 10 µM (inactive)
same,GI50,OVCAR-8,> 10 µM (inactive)
same,GI50,PC-3,> 10 µM (inactive)
same,GI50,RXF 393,> 10 µM (inactive)
same,GI50,SF-268,> 10 µM (inactive)
same,GI50,SF-295,> 10 µM (inactive)
same,GI50,SF-539,> 10 µM (inactive)
same,GI50,SK-MEL-28,> 10 µM (inactive)
same,GI50,SK-MEL-5,> 10 µM (inactive)
same,GI50,SN12C,> 10 µM (inactive)
same,GI50,SNB-19,> 10 µM (inactive)
same,GI50,SNB-75,6.95 µM (inactive)
same,GI50,SW-620,> 10 µM (inactive)
same,GI50,TK-10,> 10 µM (inactive)
same,GI50,U-251,> 10 µM (inactive)
same,GI50,UO-31,5.68 µM (inactive)
O=CC1=C(C(=O)OC(c2ccccc2)c2ccccc2)N2C(=O)[C@@H](NC(=O)Cc3cccs3)[C@H]2SC1,GI50,786-0,> 100 µM (inactive)
same,GI50,A498,> 100 µM (inactive)
same,GI50,A549,> 100 µM (inactive)
same,GI50,ACHN,> 100 µM (inactive)
same,GI50,CAKI-1,> 100 µM (inactive)
same,GI50,CCRF-CEM,57.3 µM (inactive)
same,GI50,COLO 205,> 100 µM (inactive)
same,GI50,DU-145,> 100 µM (inactive)
same,GI50,EKVX,> 100 µM (inactive)
same,GI50,HCC 2998,> 100 µM (inactive)
same,GI50,HCT-116,83 µM (inactive)
same,GI50,HCT-15,> 100 µM
same,GI50,HL-60,23.3 µM (inactive)
same,GI50,HOP-92,> 100 µM (inactive)
same,GI50,IGROV-1,> 100 µM (inactive)
same,GI50,K562,> 100 µM (inactive)
same,GI50,KM12,91.2 µM (inactive)
same,GI50,LOX IMVI,> 100 µM (inactive)
same,GI50,M14,> 100 µM (inactive)
same,GI50,MCF7,> 100 µM (inactive)
same,GI50,MDA-MB-231,> 100 µM (inactive)
same,GI50,MDA-MB-435,85.5 µM (inactive)
same,GI50,MDA-N,> 100 µM (inactive)
same,GI50,MOLT-4,53.6 µM (inactive)
same,GI50,Malme-3M,> 100 µM (inactive)
same,GI50,NCI-H226,> 100 µM (inactive)
same,GI50,NCI-H23,73.6 µM (inactive)
same,GI50,NCI-H460,> 100 µM (inactive)
same,GI50,NCI-H522,64.3 µM (inactive)
same,GI50,NCI/ADR-RES,> 100 µM (inactive)
same,GI50,OVCAR-3,> 100 µM (inactive)
same,GI50,OVCAR-4,> 100 µM (inactive)
same,GI50,OVCAR-5,> 100 µM (inactive)
same,GI50,OVCAR-8,> 100 µM (inactive)
same,GI50,PC-3,> 100 µM (inactive)
same,GI50,RPMI-8226,79.4 µM (inactive)
same,GI50,RXF 393,> 100 µM (inactive)
same,GI50,SF-295,> 100 µM (inactive)
same,GI50,SF-539,> 100 µM (inactive)
same,GI50,SK-MEL-2,> 100 µM (inactive)
same,GI50,SK-MEL-5,> 100 µM (inactive)
same,GI50,SK-OV-3,> 100 µM (inactive)
same,GI50,SN12C,> 100 µM (inactive)
same,GI50,SNB-75,> 100 µM (inactive)
same,GI50,SR,13.2 µM (inactive)
same,GI50,SW-620,> 100 µM (inactive)
same,GI50,TK-10,> 100 µM (inactive)
same,GI50,U-251,> 100 µM (inactive)
same,GI50,UACC-257,> 100 µM (inactive)
same,GI50,UACC-62,> 100 µM (inactive)
same,GI50,UO-31,40 µM (inactive)
